Source: article PMC8213057, “Targeting ALK2: An Open Science Approach to Developing Therapeutics for the Treatment of Diffuse Intrinsic Pontine Glioma” (Journal of Medicinal Chemistry, 2020)
Several values for one entry are separate records, joined by “and”; a condition that tells them apart may be missing. Equal values may be shown once.

Legend:
RSK2 = RSK2 (Homo sapiens, UniProt P51812); conditions: 1 μM; Run 1, Run 2
SIK3 = SIK3 (Homo sapiens, UniProt Q9Y2K2); assay: biochemical; conditions: read-out: % enzyme activity, 1 μM; Run 1, Run 2
PDGFRa = PDGFRa (Homo sapiens, UniProt P16234); assay: biochemical; conditions: read-out: % enzyme activity, 1 μM; Run 1, Run 2
HCK = HCK (Homo sapiens, UniProt P08631); assay: biochemical; conditions: read-out: % enzyme activity, 1 μM; Run 1, Run 2
ALK4/ACVR1B = biological target: T1, ALK4/ACVR1B (Homo sapiens, UniProt P36896); assay: 375-member kinase panel; type: biochemical; conditions: Run 1, Run 2; for % enzyme activity: 1 μM; for remaining activity at 1 µM: read-out: % enzyme activity, 1 μM
T1 construct: purchased Reaction Biology Corporation
T1 sequence (P36896 24-505): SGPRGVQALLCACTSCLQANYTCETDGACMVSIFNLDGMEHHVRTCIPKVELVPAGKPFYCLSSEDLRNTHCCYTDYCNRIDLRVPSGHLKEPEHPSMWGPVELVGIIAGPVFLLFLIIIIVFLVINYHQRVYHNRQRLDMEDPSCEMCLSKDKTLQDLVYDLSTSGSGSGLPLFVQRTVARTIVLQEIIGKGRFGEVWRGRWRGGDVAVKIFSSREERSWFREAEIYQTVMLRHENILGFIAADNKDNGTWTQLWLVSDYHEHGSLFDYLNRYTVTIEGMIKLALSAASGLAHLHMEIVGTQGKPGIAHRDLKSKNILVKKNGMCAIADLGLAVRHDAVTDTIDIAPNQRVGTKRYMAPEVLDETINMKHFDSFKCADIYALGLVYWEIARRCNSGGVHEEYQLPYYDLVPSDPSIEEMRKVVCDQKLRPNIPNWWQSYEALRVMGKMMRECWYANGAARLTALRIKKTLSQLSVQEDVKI

MLK3/MAP3K11 = MLK3/MAP3K11 (Homo sapiens, UniProt Q16584); conditions: 1 μM; Run 1, Run 2
CDK5/P25 = CDK5/P25 (Homo sapiens, UniProt Q00535); assay: biochemical; conditions: read-out: % enzyme activity, 1 μM; Run 1, Run 2
IRAK4 = biological target: T2, IRAK4 (Homo sapiens, UniProt Q9NWZ3); conditions: 1 μM; Run 1, Run 2
T2 sequence (Q9NWZ3 1-460): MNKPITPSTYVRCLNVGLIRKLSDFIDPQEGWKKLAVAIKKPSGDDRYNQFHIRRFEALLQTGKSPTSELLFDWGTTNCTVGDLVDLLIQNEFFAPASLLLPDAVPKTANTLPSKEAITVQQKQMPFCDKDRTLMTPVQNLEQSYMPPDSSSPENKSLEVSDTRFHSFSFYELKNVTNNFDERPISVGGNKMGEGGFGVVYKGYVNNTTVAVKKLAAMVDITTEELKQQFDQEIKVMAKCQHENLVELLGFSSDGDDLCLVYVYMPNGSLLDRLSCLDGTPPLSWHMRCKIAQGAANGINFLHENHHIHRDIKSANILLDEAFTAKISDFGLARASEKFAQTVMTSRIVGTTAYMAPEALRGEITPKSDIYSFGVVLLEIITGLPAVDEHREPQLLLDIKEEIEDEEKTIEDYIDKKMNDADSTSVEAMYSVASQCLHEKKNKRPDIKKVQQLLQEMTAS

TSSK2 = biological target: T3, TSSK2 (Homo sapiens, UniProt Q96PF2); assay: biochemical; conditions: read-out: % enzyme activity, 1 μM; Run 1, Run 2
T3 sequence (Q96PF2 1-358): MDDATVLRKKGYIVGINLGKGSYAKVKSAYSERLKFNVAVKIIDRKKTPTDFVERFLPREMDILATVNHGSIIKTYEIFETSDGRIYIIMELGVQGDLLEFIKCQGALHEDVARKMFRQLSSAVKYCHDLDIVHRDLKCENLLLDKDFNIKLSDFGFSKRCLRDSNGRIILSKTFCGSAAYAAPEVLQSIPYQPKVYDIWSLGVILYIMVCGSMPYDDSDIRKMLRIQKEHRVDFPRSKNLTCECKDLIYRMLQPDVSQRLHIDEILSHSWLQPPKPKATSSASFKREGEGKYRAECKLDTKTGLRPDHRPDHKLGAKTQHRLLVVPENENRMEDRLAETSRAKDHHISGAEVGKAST

ABL1 = ABL1 (Homo sapiens, UniProt P00519); conditions: 1 μM; Run 1, Run 2
CAMKK1 = CAMKK1 (Homo sapiens, UniProt Q8N5S9); conditions: 1 μM; Run 1, Run 2
ALK6/BMPR1B = biological target: T4, ALK6/BMPR1B (Homo sapiens, UniProt O00238); assay: 375-member kinase panel; type: biochemical; conditions: Run 1, Run 2; for % enzyme activity: 1 μM; for remaining activity at 1 µM: read-out: % enzyme activity, 1 μM
T4 construct: purchased Reaction Biology Corporation

ERK1 = ERK1 (Homo sapiens, UniProt P27361); conditions: 1 μM; Run 1, Run 2
PKG1b = biological target: T5, PKG1b (Homo sapiens, UniProt Q13976); conditions: 1 μM; Run 1, Run 2
T5 sequence (Q13976 1-686 isoform Q13976-2): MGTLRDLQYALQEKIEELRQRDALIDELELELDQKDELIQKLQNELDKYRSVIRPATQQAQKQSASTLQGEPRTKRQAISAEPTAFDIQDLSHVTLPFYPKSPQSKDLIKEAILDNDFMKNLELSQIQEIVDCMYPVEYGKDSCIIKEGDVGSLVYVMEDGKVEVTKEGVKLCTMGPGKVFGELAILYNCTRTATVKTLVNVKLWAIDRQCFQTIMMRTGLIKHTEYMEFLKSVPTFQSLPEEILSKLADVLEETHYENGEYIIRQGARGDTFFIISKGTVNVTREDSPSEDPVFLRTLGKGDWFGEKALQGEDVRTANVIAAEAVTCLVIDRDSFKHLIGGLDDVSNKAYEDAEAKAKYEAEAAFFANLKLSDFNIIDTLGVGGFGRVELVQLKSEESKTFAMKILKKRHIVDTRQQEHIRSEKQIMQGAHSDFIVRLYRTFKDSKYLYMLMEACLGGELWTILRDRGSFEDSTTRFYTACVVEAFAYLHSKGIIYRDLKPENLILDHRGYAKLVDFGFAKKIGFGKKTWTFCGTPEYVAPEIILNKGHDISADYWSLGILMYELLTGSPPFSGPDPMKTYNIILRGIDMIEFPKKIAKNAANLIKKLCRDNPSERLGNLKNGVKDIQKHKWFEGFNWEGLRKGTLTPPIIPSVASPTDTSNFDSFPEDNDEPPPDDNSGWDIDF

RIPK2 = RIPK2 (Homo sapiens, UniProt O43353); assay: biochemical; conditions: read-out: % enzyme activity, 1 μM; Run 1, Run 2
IR = IR (Homo sapiens, UniProt P06213); conditions: 1 μM; Run 1, Run 2

T4 sequence (O00238 14-502): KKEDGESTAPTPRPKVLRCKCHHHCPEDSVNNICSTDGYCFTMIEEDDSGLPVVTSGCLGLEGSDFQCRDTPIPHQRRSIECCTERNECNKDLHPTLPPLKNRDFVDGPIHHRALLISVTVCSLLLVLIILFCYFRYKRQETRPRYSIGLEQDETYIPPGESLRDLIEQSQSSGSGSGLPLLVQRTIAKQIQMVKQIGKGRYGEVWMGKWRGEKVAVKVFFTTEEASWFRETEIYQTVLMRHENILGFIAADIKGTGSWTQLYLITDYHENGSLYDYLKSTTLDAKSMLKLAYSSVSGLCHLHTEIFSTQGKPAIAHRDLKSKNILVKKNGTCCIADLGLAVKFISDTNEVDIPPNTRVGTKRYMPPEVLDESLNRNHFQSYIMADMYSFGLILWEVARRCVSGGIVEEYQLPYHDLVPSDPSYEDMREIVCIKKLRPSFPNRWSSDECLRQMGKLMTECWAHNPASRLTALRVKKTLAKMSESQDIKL
Sequence of RSK2 (P51812 whole entry): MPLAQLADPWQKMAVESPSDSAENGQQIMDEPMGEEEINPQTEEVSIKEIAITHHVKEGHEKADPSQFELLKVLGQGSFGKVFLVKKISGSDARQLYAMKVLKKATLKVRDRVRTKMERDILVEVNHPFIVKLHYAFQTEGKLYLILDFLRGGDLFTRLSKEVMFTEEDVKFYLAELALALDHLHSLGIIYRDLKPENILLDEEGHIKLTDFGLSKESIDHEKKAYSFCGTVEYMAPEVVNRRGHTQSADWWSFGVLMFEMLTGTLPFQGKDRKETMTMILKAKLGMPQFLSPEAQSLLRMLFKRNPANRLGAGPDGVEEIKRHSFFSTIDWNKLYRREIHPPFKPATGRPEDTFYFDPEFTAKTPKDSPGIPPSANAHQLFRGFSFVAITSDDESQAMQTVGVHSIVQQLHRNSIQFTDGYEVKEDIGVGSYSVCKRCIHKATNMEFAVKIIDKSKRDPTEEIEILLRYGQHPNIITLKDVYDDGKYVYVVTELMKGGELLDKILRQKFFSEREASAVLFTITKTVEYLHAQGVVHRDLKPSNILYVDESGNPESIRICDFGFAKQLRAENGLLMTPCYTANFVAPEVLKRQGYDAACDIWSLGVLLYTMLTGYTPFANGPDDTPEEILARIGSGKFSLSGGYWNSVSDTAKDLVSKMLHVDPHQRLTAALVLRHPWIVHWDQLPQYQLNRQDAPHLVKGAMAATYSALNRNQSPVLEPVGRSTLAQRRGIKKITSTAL
Sequence of CDK5/P25 (Q00535 whole entry): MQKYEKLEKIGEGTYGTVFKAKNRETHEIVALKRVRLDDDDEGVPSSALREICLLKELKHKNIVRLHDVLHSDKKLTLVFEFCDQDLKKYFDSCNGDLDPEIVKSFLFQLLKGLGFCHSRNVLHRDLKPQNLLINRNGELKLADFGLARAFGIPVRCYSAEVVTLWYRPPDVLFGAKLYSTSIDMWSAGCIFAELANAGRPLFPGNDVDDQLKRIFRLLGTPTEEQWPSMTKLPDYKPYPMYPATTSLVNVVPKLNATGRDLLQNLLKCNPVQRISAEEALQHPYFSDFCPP
Sequence of CDK5/P25 (Q15078 99-307 partner limits assumed): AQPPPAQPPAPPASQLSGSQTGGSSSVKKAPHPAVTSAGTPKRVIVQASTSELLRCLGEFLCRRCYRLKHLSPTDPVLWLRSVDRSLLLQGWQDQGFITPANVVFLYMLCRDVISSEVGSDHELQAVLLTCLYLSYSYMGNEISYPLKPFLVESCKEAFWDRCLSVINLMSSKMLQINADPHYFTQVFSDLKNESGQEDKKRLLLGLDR
Sequence of RIPK2 (O43353 whole entry): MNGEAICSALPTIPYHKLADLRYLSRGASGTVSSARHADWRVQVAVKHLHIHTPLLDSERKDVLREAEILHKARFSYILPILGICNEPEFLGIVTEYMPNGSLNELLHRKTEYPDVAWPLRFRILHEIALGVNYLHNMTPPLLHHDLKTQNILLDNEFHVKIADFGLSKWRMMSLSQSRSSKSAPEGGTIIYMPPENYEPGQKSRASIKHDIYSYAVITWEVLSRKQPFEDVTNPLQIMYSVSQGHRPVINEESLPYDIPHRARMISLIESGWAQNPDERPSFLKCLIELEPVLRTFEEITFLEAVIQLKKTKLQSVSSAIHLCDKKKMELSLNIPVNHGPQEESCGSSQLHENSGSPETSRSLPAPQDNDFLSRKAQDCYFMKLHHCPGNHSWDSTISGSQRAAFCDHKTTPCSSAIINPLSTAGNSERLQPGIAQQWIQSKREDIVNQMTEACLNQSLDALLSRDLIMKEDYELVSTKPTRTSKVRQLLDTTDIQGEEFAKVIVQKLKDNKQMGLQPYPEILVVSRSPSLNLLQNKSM
Sequence of CAMKK1 (Q8N5S9 whole entry): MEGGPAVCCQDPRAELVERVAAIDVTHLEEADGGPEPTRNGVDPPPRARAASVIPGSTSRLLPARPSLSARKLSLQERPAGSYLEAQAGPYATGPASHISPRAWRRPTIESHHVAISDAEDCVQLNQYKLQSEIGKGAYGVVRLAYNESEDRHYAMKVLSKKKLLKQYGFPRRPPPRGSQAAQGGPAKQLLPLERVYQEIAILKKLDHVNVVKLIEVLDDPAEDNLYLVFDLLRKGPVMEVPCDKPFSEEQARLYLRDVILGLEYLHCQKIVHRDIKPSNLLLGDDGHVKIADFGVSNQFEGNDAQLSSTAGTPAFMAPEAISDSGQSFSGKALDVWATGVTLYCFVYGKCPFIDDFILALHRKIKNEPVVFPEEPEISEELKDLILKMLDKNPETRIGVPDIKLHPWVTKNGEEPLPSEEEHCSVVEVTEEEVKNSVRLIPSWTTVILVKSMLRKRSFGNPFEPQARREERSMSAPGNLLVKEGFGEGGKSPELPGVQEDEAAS
Sequence of HCK (P08631 whole entry): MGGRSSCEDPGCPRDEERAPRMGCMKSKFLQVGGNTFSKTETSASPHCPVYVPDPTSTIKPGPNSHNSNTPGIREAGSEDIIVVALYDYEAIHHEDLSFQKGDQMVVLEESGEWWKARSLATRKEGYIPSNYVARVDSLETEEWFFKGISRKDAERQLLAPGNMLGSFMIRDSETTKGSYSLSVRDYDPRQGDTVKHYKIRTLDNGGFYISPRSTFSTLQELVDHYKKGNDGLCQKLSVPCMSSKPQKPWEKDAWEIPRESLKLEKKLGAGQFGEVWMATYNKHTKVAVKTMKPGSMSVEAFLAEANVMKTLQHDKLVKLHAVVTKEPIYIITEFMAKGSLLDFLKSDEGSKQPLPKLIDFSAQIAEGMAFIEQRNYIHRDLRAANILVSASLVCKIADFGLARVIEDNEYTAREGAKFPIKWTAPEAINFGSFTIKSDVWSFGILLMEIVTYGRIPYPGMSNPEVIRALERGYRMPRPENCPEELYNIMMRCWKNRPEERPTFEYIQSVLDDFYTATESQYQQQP
Sequence of SIK3 (Q9Y2K2 whole entry): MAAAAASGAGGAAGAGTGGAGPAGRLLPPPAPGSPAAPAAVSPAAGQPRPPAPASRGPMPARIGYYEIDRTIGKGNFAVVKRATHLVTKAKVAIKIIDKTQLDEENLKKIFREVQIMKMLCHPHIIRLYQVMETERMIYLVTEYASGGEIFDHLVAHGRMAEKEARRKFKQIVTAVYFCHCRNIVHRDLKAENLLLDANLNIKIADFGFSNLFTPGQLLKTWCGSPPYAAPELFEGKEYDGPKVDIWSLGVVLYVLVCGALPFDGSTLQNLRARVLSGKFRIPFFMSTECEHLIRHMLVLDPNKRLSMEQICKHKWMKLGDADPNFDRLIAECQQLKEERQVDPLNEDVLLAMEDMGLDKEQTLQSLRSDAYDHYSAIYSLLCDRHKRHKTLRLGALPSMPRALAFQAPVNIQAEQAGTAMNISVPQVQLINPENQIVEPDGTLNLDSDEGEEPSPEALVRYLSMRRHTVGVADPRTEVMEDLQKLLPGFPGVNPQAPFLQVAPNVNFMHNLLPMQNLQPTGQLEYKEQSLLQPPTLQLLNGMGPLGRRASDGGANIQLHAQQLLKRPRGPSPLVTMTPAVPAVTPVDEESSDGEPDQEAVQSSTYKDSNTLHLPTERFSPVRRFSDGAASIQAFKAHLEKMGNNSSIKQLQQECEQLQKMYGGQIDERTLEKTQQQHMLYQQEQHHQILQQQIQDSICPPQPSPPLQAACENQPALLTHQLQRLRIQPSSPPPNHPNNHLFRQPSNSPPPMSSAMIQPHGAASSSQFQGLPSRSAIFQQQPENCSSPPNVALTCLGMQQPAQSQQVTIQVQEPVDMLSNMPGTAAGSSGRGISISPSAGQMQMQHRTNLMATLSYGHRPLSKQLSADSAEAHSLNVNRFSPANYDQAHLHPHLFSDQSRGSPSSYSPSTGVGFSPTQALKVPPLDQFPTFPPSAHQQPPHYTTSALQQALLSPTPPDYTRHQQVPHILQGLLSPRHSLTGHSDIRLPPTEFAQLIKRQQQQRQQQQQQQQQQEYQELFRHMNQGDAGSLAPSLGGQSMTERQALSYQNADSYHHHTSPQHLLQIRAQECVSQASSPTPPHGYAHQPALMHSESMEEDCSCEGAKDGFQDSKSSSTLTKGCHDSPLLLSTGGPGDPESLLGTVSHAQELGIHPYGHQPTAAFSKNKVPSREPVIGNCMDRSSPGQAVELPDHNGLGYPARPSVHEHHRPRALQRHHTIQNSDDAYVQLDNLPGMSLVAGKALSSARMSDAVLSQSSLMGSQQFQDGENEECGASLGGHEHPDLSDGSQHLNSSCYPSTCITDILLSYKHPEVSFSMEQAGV
Sequence of ERK1 (P27361 whole entry): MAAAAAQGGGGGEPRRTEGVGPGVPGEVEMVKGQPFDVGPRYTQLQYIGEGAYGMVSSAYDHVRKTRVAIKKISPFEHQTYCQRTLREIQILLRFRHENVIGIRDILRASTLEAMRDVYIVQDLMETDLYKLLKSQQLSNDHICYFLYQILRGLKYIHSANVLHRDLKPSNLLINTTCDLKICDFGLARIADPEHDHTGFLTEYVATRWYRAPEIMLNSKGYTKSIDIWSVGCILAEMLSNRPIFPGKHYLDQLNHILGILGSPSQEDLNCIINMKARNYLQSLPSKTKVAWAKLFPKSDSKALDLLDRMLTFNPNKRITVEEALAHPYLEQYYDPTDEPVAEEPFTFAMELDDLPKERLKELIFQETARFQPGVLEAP

| Structure (SMILES) | % enzyme activity (RSK2) [%] | % enzyme activity at 1 μM (NLK) | remaining activity at 1 µM (SIK3) [%] | remaining activity at 1 µM (PDGFRa) [%] | remaining activity at 1 µM (HCK) [%] | % enzyme activity (ALK4/ACVR1B) [%] | remaining activity at 1 µM (ALK4/ACVR1B) [%] | % enzyme activity (MLK3/MAP3K11) [%] | remaining activity at 1 µM (CDK5/P25) [%] | % enzyme activity (IRAK4) [%] | remaining activity at 1 µM (TSSK2) [%] | % enzyme activity (ABL1) [%] | % enzyme activity (CAMKK1) [%] | % enzyme activity (ALK6/BMPR1B) [%] | remaining activity at 1 µM (ALK6/BMPR1B) [%] | % enzyme activity (ERK1) [%] | % enzyme activity (PKG1b) [%] | remaining activity at 1 µM (RIPK2) [%] | % enzyme activity (IR) [%] |
| --- | --- | --- | --- | --- | --- | --- | --- | --- | --- | --- | --- | --- | --- | --- | --- | --- | --- | --- | --- |
| COc1cc(-c2cncc(-c3ccc(N4CCN(C)CC4)cc3)c2C)cc(F)c1C(N)=O [Compound 26a, 2-Fluoro-6-methoxy-4-(4-methyl-5-(4-(4-methylpiperazin-1-yl)phenyl)pyridin-3-yl)benzamide] | 99.92 | 22% and 20.8% | 59.5 | 82.9 | 93.6 | 68.79 | 68.8 | 99.32 | 94.6 | 82.71 | 100 | 75.12 | 92.05 | 17.03 | 18.2 | 94.73 | 98.83 | 71.1 | 100.44 |
| COc1cc(-c2cncc(-c3ccc(N4C[C@@H](C)N(C)[C@@H](C)C4)cc3)c2C)cc(F)c1C(N)=O [Compound 26c, 2-Fluoro-6-methoxy-4-(4-methyl-5-(4-((3R,5S)-3,4,5-trimethylpiperazin-1-yl)phenyl)pyridin-3-yl)benzamide] | 101.06 | 50.4% and 47.7% | 89 | 81.9 | 91.8 | 81.71 | 82.4 | 96.66 | 94.8 | 88.61 | 100 | 82.07 | 93.52 | 30.06 | 30.2 | 94.56 | 96.31 | 89.7 | 97.15 |
